Reference: PubChem BioAssay AID1918938 (Molecular Pharmacology Branch, DTP, NCI, 2023)

Tested on: 556581-035-R-J1-PDC complex spheroid viability
Test: Anticancer human tumor 556581-035-R-J1-PDC patient-derived ovarian carcinoma cell line growth inhibition
Conditions: for IC50: curve of first compound; for viability, T/C: stronger effect = lower value
From the text: Multicellular complex tumor spheroid response to LSD1 Inhibitor Iadademstat in combination with a variety of drugs and investigational agents in selected tumor cell lines
The current study was undertaken to assess response to LSD1 inhibitors in combination with standard-of-care drugs and investigational agents in solid tumor complex spheroid models as well as in the K-562 leukemia. Complex spheroids include a stromal component modeled by human endothelial cells (HUVEC) and fibroblasts modeled by human mesenchymal stem cells (MSCs). The concentration ranges selected for each drug and investigational agent were based upon clinically achievable concentrations if the clinical Cmax of the agent was known.
Compounds. The drugs and investigational agents used in this study are listed on Table 1. All of the agents used, including staurosporine (NSC755774) and gemcitabine (NSC613327), were obtained from the Developmental Therapeutics Program, NCI. FDA-approved anticancer drugs are available from the NCI at http://dtp.nci.nih.gov/branches/dscb/oncology_drugset_explanation.html. Drugs and investigational agents were >95% pure by proton nuclear magnetic resonance (NMR) and liquid chromatography/mass spectrometry (LC/MS). Stock solutions were prepared at 400x in DMSO, stored at -70 degrees C, and diluted in fresh medium prior to their use. The final concentration of DMSO in cell culture wells never exceeded 0.25% (v/v). The FDA-approved anticancer drug set is available from the Developmental Therapeutics Program at https://dtp.cancer.gov/organization/dscb/obtaining/available_plates.htm. All drugs and investigational agents were tested over a range starting from a high concentration at or near the clinical Cmax and decreasing in half-log increments. If the clinical Cmax for an agent had not been determined, the highest concentration tested was 10 microM.
Cell Lines. The patient-derived cancer cell (PDC) lines: 292921-168-R-J2-PDC, K24384-001-R-PDC, and 521955-158-R2-J5-PDC pancreatic carcinomas, 556581-035-R-J1 ovarian carcinoma, 324938-238-R-J1-PDC, 855422-203-R-J1-PDC and 883617-216-R-J1-PDC urothelial bladder carcinomas, 743489-274-T-PDC renal cell carcinoma, 138582-R-J1 Merkel cell tumor, K60290-347-R-J1 and K57222-313-R-J1-PDC glioblastomas, 653999-131-R-J2-PDC, LG0703-F948-PDC, and 349418-098-R-PDC non-small cell lung carcinomas, 885512-296-R-J2-PDC, 171881-019-R-J1-PDC breast carcinomas and 186277-243-T-J2-PDC and 233499-124-R-J2-PDC colon carcinomas were obtained from the NCI Patient-Derived Models Repository (PDMR, https://pdmr.cancer.gov). The established cell lines NCI/ADR-RES (RRID:CVCL_14520 and OVCAR-5 (RRID:CVCL_1628) ovarian carcinomas, 786-O (RRID:CVCL_1051) and A498 (RRID:CVCL_A498) renal cell carcinoma, NCI-H211 (ATCC, cat. CRL-5824; RRID:CVCL_1529), NCI-H196 (ATCC, cat. CRL-5823, RRID:CVCL_1509), SW 1271 (ATCC, cat. CRL-2177, RRID:CVCL_1716) and NCI-H1876 (ATCC, cat. CRL-5902, RRID:CVCL_1503) small cell lung carcinomas, MDA-MB-231 (RRID:CVCL_0062) and MDA-MB-468 (RRID:CVCL_0419)breast carcinomas (10-12). Pooled donor human umbilical vein endothelial cells (HUVEC, Lonza, cat. CC-2519) and human mesenchymal stem cells (hMSC, Lonza, cat. PT-2501) were purchased from Lonza (Walkersville, MD).
Cell Culture. All cells were maintained in an incubator at 37 degrees C and 5% CO2 with 95% humidity. The PDC lines were cultured according to standard operating procedures established by the NCI PDMR (https://pdmr.cancer.gov). Briefly all PDCs were thawed and cultured in Matrigel-coated flasks prepared with a working solution of 1X Ham's F-12 nutrient mix, without supplementation (Invitrogen, Waltham, MA, cat. 11765054), 100 U/mL penicillin-streptomycin (Invitrogen, cat. 15140122), and 2.5% Matrigel (Corning Inc., Corning, NY, cat. 354248) for the first three passages. […]
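Also: spheroids exposed to agents for seven days.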
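For viability, T/C in this document: 100% = DMSO vehicle control wells.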

## Nc1ncn(C2CC(O)C(CO)S2)c(=O)n1 (stereo not given) + NC1CC1c1ccc(-c2cccc(O)c2)cc1
Second compound 0.1 µM
  IC50: 37.5 nM
Second compound 0.316 µM
  IC50: 33.1 nM
Second compound 1 µM
  IC50: 34.7 nM
Second compound 3.16 µM
  IC50: 33.7 nM
Second compound 10 µM
  IC50: 28.8 nM
Second compound 0.1 µM, first compound 0.000949 µM
  viability, T/C: 86.7%
Second compound 0.1 µM, first compound 0.003 µM
  viability, T/C: 84.5%
Second compound 0.1 µM, first compound 0.00949 µM
  viability, T/C: 78.2%
Second compound 0.1 µM, first compound 0.03 µM
  viability, T/C: 52%
Second compound 0.1 µM, first compound 0.0949 µM
  viability, T/C: 34.1%
Second compound 0.1 µM, first compound 0.3 µM
  viability, T/C: 20.6%
Second compound 0.316 µM, first compound 0.000949 µM
  viability, T/C: 85.9%
Second compound 0.316 µM, first compound 0.003 µM
  viability, T/C: 80%
Second compound 0.316 µM, first compound 0.00949 µM
  viability, T/C: 88.1%
Second compound 0.316 µM, first compound 0.03 µM
  viability, T/C: 52.4%
Second compound 0.316 µM, first compound 0.0949 µM
  viability, T/C: 27.9%
Second compound 0.316 µM, first compound 0.3 µM
  viability, T/C: 22.4%
Second compound 1 µM, first compound 0.000949 µM
  viability, T/C: 80.5%
Second compound 1 µM, first compound 0.003 µM
  viability, T/C: 83.5%
Second compound 1 µM, first compound 0.00949 µM
  viability, T/C: 70%
Second compound 1 µM, first compound 0.03 µM
  viability, T/C: 54.1%
Second compound 1 µM, first compound 0.0949 µM
  viability, T/C: 30.8%
Second compound 1 µM, first compound 0.3 µM
  viability, T/C: 24%
Second compound 3.16 µM, first compound 0.000949 µM
  viability, T/C: 88.7%
Second compound 3.16 µM, first compound 0.003 µM
  viability, T/C: 93.6%
Second compound 3.16 µM, first compound 0.00949 µM
  viability, T/C: 73.7%
Second compound 3.16 µM, first compound 0.03 µM
  viability, T/C: 52.6%
Second compound 3.16 µM, first compound 0.0949 µM
  viability, T/C: 33.1%
Second compound 3.16 µM, first compound 0.3 µM
  viability, T/C: 25.4%
Second compound 10 µM, first compound 0.000949 µM
  viability, T/C: 82.2%
Second compound 10 µM, first compound 0.003 µM
  viability, T/C: 79.7%
Second compound 10 µM, first compound 0.00949 µM
  viability, T/C: 65.4%
Second compound 10 µM, first compound 0.03 µM
  viability, T/C: 52%
Second compound 10 µM, first compound 0.0949 µM
  viability, T/C: 32.1%
Second compound 10 µM, first compound 0.3 µM
  viability, T/C: 29.9%
